Measured values taken from ChEMBL document CHEMBL1137327, “Optimization of chromone-2-carboxamide melanin concentrating hormone receptor 1 antagonists: assessment of potency, efficacy, and cardiovascular safety” (J Med Chem, 2006).
pIC50: −log10 of the molar value. Active and inactive are the calls of the source. The calls are words filed in the database; no cut-off is given here.

Assays:
[1] = molecular target: T1, Melanin-concentrating hormone receptor 1 (Homo sapiens, UniProt Q99705); assay: Displacement of [125I]MCH from MCHr1 expressed in IMR32 cells; assay type: cell-based, IMR-32
T1 sequence (Q99705 whole entry): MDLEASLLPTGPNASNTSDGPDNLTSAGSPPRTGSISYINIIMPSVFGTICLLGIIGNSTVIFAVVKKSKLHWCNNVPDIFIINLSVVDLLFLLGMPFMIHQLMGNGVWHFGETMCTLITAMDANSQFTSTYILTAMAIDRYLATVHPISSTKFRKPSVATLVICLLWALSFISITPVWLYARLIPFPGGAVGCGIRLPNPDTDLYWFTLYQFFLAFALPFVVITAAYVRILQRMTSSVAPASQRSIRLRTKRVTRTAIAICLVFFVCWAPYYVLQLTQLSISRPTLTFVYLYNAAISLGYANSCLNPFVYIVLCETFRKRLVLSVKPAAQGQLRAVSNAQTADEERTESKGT

[2] = molecular target: T1, Melanin-concentrating hormone receptor 1; assay: Antagonist activity at MCHr1 assessed as inhibition of MCH-mediated calcium ion release in intact IMR32 cells by FLIPR assay; assay type: functional, cell-based, IMR-32
[3] = Drug level in C57BL/6J DIO mouse brain at 30 mg/kg, po after 14 days; assay type: ADME, organism-based; parameters: dose 30 mg/kg, route oral; settings: read-out: Drug uptake
[4] = system: Rattus norvegicus; assay: Drug level in anesthetized Sprague-Dawley rat brain; assay type: ADME, organism-based; settings: in vivo
[5] = Cmax in C57BL/6J DIO mouse brain at 10 mg/kg, po; assay type: ADME, organism-based; parameters: dose 10 mg/kg, route oral
[6] = Drug level in C57BL/6J DIO mouse plasma at 10 mg/kg, po after 14 days; assay type: ADME, organism-based; parameters: dose 10 mg/kg, route oral
[7] = Half life in C57BL/6J DIO mouse plasma at 10 mg/kg, po; assay type: ADME, organism-based; parameters: dose 10 mg/kg, route oral
[8] = Ratio of AUC in brain to plasma of C57BL/6J DIO mouse at 10 mg/kg, po; assay type: ADME, organism-based; parameters: dose 10 mg/kg, route oral; settings: brain and plasma, read-out: Ratio AUC
[9] = system: Mus musculus; assay: Decrease in body weight of C57BL/6J DIO mouse at 1 mg/kg, po relative to control; assay type: functional, organism-based; parameters: dose 1 mg/kg
[10] = Cmax in C57BL/6J DIO mouse plasma at 10 mg/kg, po; assay type: ADME, organism-based; parameters: dose 10 mg/kg, route oral; settings: read-out: Cmax
[11] = system: Mus musculus; assay: Decrease in food intake of C57BL/6J DIO mouse at 30 mg/kg, po relative to control; assay type: functional; parameters: scale not given: the % may be the effect or the level left
[12] = system: Mus musculus; assay: Decrease in body weight of C57BL/6J DIO mouse at 3 mg/kg, po relative to control; assay type: functional, organism-based; parameters: dose 3 mg/kg
[13] = Drug level in C57BL/6J DIO mouse brain at 10 mg/kg, po after 14 days; assay type: ADME, organism-based; parameters: dose 10 mg/kg, route oral; settings: read-out: Drug uptake
[14] = system: Mus musculus; assay: Decrease in body weight of C57BL/6J DIO mouse at 10 mg/kg, po after 14 days relative to control; assay type: functional; parameters: scale not given: the % may be the effect or the level left
[15] = system: Mus musculus; assay: AUC in C57BL/6J DIO mouse brain at 10 mg/kg, po; assay type: ADME, organism-based; parameters: dose 10 mg/kg, route oral; settings: in vivo
[16] = Drug level in C57BL/6J DIO mouse plasma at 30 mg/kg, po after 14 days; assay type: ADME, organism-based; parameters: dose 30 mg/kg, route oral
[17] = Half life in C57BL/6J DIO mouse brain at 10 mg/kg, po; assay type: ADME, organism-based; parameters: dose 10 mg/kg, route oral
[18] = system: Rattus norvegicus; assay: Drug level in anesthetized Sprague-Dawley rat plasma; assay type: ADME, organism-based; settings: in vivo
[19] = system: Mus musculus; assay: Decrease in body weight of C57BL/6J DIO mouse at 30 mg/kg, po after 14 days relative to control; assay type: functional; parameters: scale not given: the % may be the effect or the level left
[20] = system: Mus musculus; assay: Decrease in food intake of C57BL/6J DIO mouse at 10 mg/kg, po relative to control; assay type: functional; parameters: scale not given: the % may be the effect or the level left
[21] = system: Rattus norvegicus; assay: Decrease in mean arterial pressure in anesthetized Sprague-Dawley rat at 60 mg/kg; assay type: functional, Artery; parameters: scale not given: the % may be the effect or the level left
[22] = system: Rattus norvegicus; assay: Decrease in heart rate in anesthetized Sprague-Dawley rat at 60 mg/kg; assay type: functional; parameters: scale not given: the % may be the effect or the level left
[23] = AUC in C57BL/6J DIO mouse plasma at 10 mg/kg, po; assay type: ADME, organism-based; parameters: dose 10 mg/kg, route oral
[24] = system: Rattus norvegicus; assay: Decrease in heart rate in anesthetized Sprague-Dawley rat at 100 mg/kg; assay type: functional; parameters: scale not given: the % may be the effect or the level left

Structure (SMILES)	pIC50 [1]	pIC50 [2]	further results
COc1ccc2c(=O)cc(C(=O)NC3CCN(Cc4ccc5c(c4)OCO5)C3)oc2c1 (stereo not given)	< 5.70	–	–
O=C(NC1CCN(Cc2ccc3c(c2)OCO3)CC1)c1cc(=O)c2cc(Cl)ccc2o1	6.13	5.69	–
COc1ccc(CN2CCC(NC(=O)c3cc(=O)c4ccc(F)cc4o3)CC2)cc1OC	6.37	–	–
COc1ccc2c(=O)cc(C(=O)NC3CCN(Cc4ccc5c(c4)OCO5)CC3)oc2c1	7.96	7.14	concentration at 336 h [3]: 27100 ng/g; Drug uptake [4]: 158 µg/g; Cmax [5]: 548 ng/g; concentration at 336 h [6]: 10100 ng/mL; half-life [7]: 3.1 h; Kp [8]: 0.24; Activity [9]: inactive; Cmax [10]: 3600 ng/mL; Activity [11]: 37%; Activity [12]: inactive; concentration at 336 h [13]: 4900 ng/g; Activity [14]: 7.3%; AUC [15]: 4398 ng·h/g; concentration at 336 h [16]: 32900 ng/mL; half-life [17]: 4.9 h; Cp [18]: 29000 ng/mL; Activity [19]: 15.9%; Activity [20]: 16%
CCc1ccc2c(=O)cc(C(=O)NC3CCN(Cc4ccc5c(c4)OCO5)CC3)oc2c1	7.23	6.28	–
O=C(NC1CCN(Cc2cccc3c2OCO3)CC1)c1cc(=O)c2ccc(F)cc2o1	< 6.15	–	–
O=C(NC1CCN(Cc2ccc3c(c2)OCO3)CC1)c1cc(=O)c2c(Cl)c(Cl)ccc2o1	7.12	5.32	–
O=C(NC1CCN(Cc2ccc3c(c2)OCO3)CC1)c1cc(=O)c2cc(F)cc(F)c2o1	7.00	5.57	–
O=C(NC1CCN(Cc2ccc3c(c2)OCO3)CC1)c1cc(=O)c2cc(C(F)(F)F)ccc2o1	6.45	–	–
COc1ccc2c(=O)cc(C(=O)NC3CCCN(Cc4ccc5c(c4)OCO5)C3)oc2c1 (stereo not given)	< 5.70	–	–
O=C(NC1CCN(Cc2ccc3c(c2)OCO3)CC1)c1cc(=O)c2cc(F)ccc2o1	7.19	6.71	–
COc1ccc2c(=O)cc(C(=O)NCC3CCN(Cc4ccc5c(c4)OCO5)C3)oc2c1 (stereo not given)	5.94	5.08	–
COc1cccc(CN2CCC(NC(=O)c3cc(=O)c4ccc(F)cc4o3)CC2)c1	7.51	6.41	–
O=C(NC1CCN(Cc2ccc3c(c2)OCO3)CC1)c1cc(=O)c2ccc(Br)cc2o1	7.49	7.09	–
O=C(NC1CCN(Cc2ccccc2F)CC1)c1cc(=O)c2ccc(F)cc2o1	6.25	5.67	–
O=C(NC1CCN(Cc2ccc3c(c2)OCO3)CC1)c1cc(=O)c2ccc(OC(F)F)cc2o1	7.19	6.80	–
O=C(NC1CCN(Cc2ccc3c(c2)OCO3)CC1)c1cc(=O)c2cc(F)c(F)cc2o1	8.70	7.89	Drug uptake [4]: 25 µg/g; Activity [21]: >15%; Cp [18]: 34000 ng/mL
COc1ccc2c(=O)cc(C(=O)NCCC3CCCN3Cc3ccc4c(c3)OCO4)oc2c1 (stereo not given)	< 5.70	–	–
CC(=O)Nc1ccc(CN2CCC(NC(=O)c3cc(=O)c4ccc(F)cc4o3)CC2)cc1	5.77	< 5.00	–
COc1cc2oc(C(=O)NC3CCN(Cc4ccc5c(c4)OCO5)CC3)cc(=O)c2cc1F	8.70	7.80	Drug uptake [4]: 149 µg/g; Activity [21]: 15.3%; Activity [22]: <15%; Cp [18]: 105000 ng/mL
O=C(NC1CCN(Cc2ccc3c(c2)OCO3)CC1)c1cc(=O)c2cc(Cl)c(Cl)cc2o1	–	7.08	Drug uptake [4]: 63 µg/g; half-life [7]: 0.9 h; Cmax [10]: 33 ng/mL; AUC [23]: 39 ng·h/mL; AUC [15]: 0 ng·h/g; Cp [18]: 20000 ng/mL; Activity [24]: 10%
O=C(NC1CCN(Cc2cccc(F)c2)CC1)c1cc(=O)c2ccc(F)cc2o1	7.92	6.02	–

Structure (SMILES)	pIC50 [1]	pIC50 [2]	further results
Cc1ccc2oc(C(=O)NC3CCN(Cc4ccc5c(c4)OCO5)CC3)cc(=O)c2c1	6.41	–	–
O=C(NC1CCN(Cc2ccccc2)CC1)c1cc(=O)c2ccc(F)cc2o1	7.22	6.23	–
COc1ccc(CN2CCC(NC(=O)c3cc(=O)c4ccc(F)cc4o3)CC2)c(F)c1	7.28	6.39	–
N#Cc1ccc2c(=O)cc(C(=O)NC3CCN(Cc4ccc5c(c4)OCO5)CC3)oc2c1	7.33	6.86	–
Cc1c(C(=O)NC2CCN(Cc3ccc4c(c3)OCO4)CC2)oc2cc(Cl)ccc2c1=O	8.70	7.17	–
O=C(NC1CCN(Cc2ccc3c(c2)OCO3)CC1)c1cc(=O)c2ccccc2o1	7.18	6.72	–
O=C(NC1CCN(Cc2ccc3c(c2)OCO3)CC1)c1cc(=O)c2c(Cl)cccc2o1	7.62	< 5.00	–
O=C(NC1CCN(Cc2ccc3c(c2)OCO3)CC1)c1cc(=O)c2cc(F)c(F)c(F)c2o1	7.04	6.38	–
O=C(NC1CCN(Cc2ccc3c(c2)OCO3)CC1)c1cc(=O)c2ccc(C(F)(F)F)cc2o1	6.75	5.51	–
O=C(NC1CCN(Cc2cc3c(cc2Cl)OCO3)CC1)c1cc(=O)c2ccc(F)cc2o1	7.66	6.58	–
COc1ccc2c(=O)cc(C(=O)N3CCN(Cc4ccc5c(c4)OCO5)CC3)oc2c1	< 5.70	–	–
O=C(NC1CCN(Cc2ccc3c(c2)OCO3)CC1)c1cc(=O)c2ccc(O)cc2o1	5.83	< 5.00	–
O=C(NC1CCN(Cc2ccc3c(c2)OC(F)(F)O3)CC1)c1cc(=O)c2ccc(F)cc2o1	7.24	6.22	–
O=C(NC1CCN(Cc2ccc3c(c2)OCO3)CC1)c1cc(=O)c2cc(Br)ccc2o1	6.73	< 5.22	–
COc1ccc2c(=O)cc(C(=O)NC3CCC(CNCc4ccc5c(c4)OCO5)CC3)oc2c1 (stereo not given)	< 5.70	–	–
O=C(NC1CCN(Cc2ccc3c(c2)OCO3)CC1)c1cc(=O)c2cc(OC(F)(F)F)ccc2o1	6.88	< 5.05	–
O=C(NC1CCN(Cc2ccc(F)cc2)CC1)c1cc(=O)c2ccc(F)cc2o1	6.80	6.10	–
O=C(NC1CCN(Cc2ccc3c(c2)OCO3)CC1)c1cc(=O)c2cc(F)c(Cl)cc2o1	8.52	7.15	–
O=C(NC1CCN(Cc2ccc3c(c2)OCO3)CC1)c1cc(=O)c2ccc(Cl)cc2o1	8.30	7.10	–
COc1ccc(CN2CCC(NC(=O)c3cc(=O)c4ccc(F)cc4o3)CC2)cc1	7.89	7.00	–
CC(=O)c1ccc(CN2CCC(NC(=O)c3cc(=O)c4ccc(F)cc4o3)CC2)cc1	7.41	6.24	–
O=C(NC1CCN(Cc2ccc3c(c2)OCCO3)CC1)c1cc(=O)c2ccc(F)cc2o1	7.14	6.77	–
